Source: the NIST ThermoML archive (doi:10.1016/j.jct.2014.01.022)
± gives the expanded uncertainty stated by the source.

Key:
[1] = 298.15 K; 101.33 kPa; Liquid; Vibrating tube method
[2] = refractive index (Na D-line) (dimensionless); settings: 298.15 K; 101.33 kPa; Liquid; Standard Abbe refractometry

Structure (SMILES): CCCCCCCCC [nonane]
- mass density [1]: 713.9 ± 0.17 kg/m3
- refractive index [2]: 1.40326 ± 0.00031

Structure (SMILES): Cc1ccccc1 [toluene]
- mass density [1]: 862.17 ± 0.13 kg/m3
- refractive index [2]: 1.49399 ± 0.00031

Structure (SMILES): CCc1ccccc1 [ethylbenzene]
- mass density [1]: 862.51 ± 0.24 kg/m3
- refractive index [2]: 1.49304 ± 0.00037

Structure (SMILES): CCCC[n+]1ccn(C)c1.O=S(=O)([N-]S(=O)(=O)C(F)(F)F)C(F)(F)F
- mass density [1]: 1436.35 ± 0.22 kg/m3
- refractive index [2]: 1.42706 ± 0.00031

Structure (SMILES): CCCCCCCC [octane]
- mass density [1]: 698.6 ± 0.25 kg/m3
- refractive index [2]: 1.39519 ± 0.00037

Structure (SMILES): CCCn1cc[n+](C)c1.O=S(=O)([N-]S(=O)(=O)C(F)(F)F)C(F)(F)F
- mass density [1]: 1474.44 ± 0.33 kg/m3
- refractive index [2]: 1.42526 ± 0.00033

Structure (SMILES): c1ccccc1 [benzene]
- mass density [1]: 873.57 ± 0.24 kg/m3
- refractive index [2]: 1.49774 ± 0.00037
